According to ChEMBL document CHEMBL4507328, “Data for DCP probe BAY-390” (2021):
The source made the active and inactive calls. The rule behind the calls is not given here.

Columns and labels:
[1] = target: Histamine H1 receptor (Homo sapiens) (UniProt P35367); details: Compound concentration 10.0 uM
[2] = target: T1, 5-hydroxytryptamine receptor 1A (Homo sapiens) (UniProt P08908); details: Compound concentration 10.0 uM
T1 sequence (whole entry): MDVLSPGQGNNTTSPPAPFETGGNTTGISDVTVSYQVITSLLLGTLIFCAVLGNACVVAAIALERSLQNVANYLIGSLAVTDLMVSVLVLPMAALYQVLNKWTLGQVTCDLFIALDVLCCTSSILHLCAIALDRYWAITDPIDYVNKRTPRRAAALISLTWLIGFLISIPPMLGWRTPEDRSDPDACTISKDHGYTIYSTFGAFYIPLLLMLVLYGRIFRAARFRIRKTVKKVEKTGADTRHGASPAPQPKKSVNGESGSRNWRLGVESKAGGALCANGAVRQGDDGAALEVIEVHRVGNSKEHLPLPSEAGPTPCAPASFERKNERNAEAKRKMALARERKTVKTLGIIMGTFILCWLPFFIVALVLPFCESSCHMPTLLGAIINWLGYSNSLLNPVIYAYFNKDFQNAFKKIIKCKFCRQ

[3] = target: Muscarinic acetylcholine receptor M3 (Homo sapiens) (UniProt P20309); details: Compound concentration 10.0 uM
[4] = target: Sigma intracellular receptor 2 (Homo sapiens) (UniProt Q5BJF2); details: Compound concentration 10.0 uM
[5] = target: Transient receptor potential cation channel subfamily A member 1 (Rattus norvegicus, UniProt Q6RI86); assay: FLIPR Ca2+ assay (rat TRPA1)
[6] = target: 5-hydroxytryptamine receptor 6 (Homo sapiens) (UniProt P50406); details: Compound concentration 10.0 uM
[7] = target: T2, 5-hydroxytryptamine receptor 2C (Homo sapiens) (UniProt P28335); details: Compound concentration 10.0 uM
T2 sequence (whole entry): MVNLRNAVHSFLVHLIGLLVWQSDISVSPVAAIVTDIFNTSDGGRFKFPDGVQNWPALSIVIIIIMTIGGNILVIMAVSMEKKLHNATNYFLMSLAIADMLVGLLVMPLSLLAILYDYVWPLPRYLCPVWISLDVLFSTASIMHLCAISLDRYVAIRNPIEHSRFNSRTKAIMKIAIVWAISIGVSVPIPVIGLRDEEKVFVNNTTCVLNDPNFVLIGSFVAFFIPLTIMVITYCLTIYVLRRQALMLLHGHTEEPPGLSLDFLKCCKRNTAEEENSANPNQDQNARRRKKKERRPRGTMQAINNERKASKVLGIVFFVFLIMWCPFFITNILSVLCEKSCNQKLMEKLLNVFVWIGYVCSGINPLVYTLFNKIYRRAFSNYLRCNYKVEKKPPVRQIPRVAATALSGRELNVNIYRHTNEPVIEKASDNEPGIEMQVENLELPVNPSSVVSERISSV

[8] = target: Beta-3 adrenergic receptor (Homo sapiens) (UniProt P13945); details: Compound concentration 10.0 uM
[9] = target: T3, Muscarinic acetylcholine receptor M2 (Homo sapiens) (UniProt P08172); details: Compound concentration 10.0 uM
T3 sequence (whole entry): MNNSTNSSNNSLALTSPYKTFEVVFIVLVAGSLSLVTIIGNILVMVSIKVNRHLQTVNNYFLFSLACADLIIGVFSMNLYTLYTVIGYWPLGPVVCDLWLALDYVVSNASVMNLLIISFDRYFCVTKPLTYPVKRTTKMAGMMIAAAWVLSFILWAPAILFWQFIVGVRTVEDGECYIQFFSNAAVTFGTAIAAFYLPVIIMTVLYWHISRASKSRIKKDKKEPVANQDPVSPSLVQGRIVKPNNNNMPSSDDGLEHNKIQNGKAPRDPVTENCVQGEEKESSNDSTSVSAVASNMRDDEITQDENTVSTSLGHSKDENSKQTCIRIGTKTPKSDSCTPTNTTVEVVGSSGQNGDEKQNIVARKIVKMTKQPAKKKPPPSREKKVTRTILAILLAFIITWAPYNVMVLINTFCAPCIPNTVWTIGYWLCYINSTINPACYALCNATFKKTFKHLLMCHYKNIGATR

[10] = target: 5-hydroxytryptamine receptor 2A (Homo sapiens, UniProt P28223); details: Compound concentration 10.0 uM
[11] = target: GABA-A receptor; anion channel (Rattus norvegicus) (UniProt O09028+P15431+P18506+P18508+P19969+P20236+P23574+P23576+P28471+P28473+P30191+P62813+P63079+P63138+Q91ZM7+Q9ES14); details: Compound concentration 10.0 uM
[12] = target: Alpha-1D adrenergic receptor (Homo sapiens) (UniProt P25100); details: Compound concentration 10.0 uM
[13] = target: Growth hormone secretagogue receptor type 1 (Homo sapiens) (UniProt Q92847); details: Compound concentration 10.0 uM
[14] = target: Purinergic P2Y (Rattus norvegicus) (UniProt O35811+Q9EPX4+P49651+Q63371+P41232+O35881+Q6GUG4); details: Compound concentration 10.0 uM
[15] = target: T4, Alpha-2C adrenergic receptor (Homo sapiens) (UniProt P18825); details: Compound concentration 10.0 uM
T4 sequence (whole entry): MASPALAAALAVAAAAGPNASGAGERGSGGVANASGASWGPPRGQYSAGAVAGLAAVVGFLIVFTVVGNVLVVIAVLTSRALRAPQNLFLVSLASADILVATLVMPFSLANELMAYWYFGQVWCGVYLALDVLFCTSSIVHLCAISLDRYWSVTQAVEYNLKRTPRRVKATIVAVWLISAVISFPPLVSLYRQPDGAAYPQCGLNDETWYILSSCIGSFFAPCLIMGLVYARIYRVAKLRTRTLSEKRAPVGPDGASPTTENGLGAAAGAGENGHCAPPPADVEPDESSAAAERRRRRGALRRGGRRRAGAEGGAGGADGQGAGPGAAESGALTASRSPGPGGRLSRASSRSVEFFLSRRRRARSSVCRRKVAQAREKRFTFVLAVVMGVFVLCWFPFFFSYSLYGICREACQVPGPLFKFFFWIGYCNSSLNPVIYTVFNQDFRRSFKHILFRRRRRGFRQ

[16] = target: T2, 5-hydroxytryptamine receptor 2C (Homo sapiens); details: Compound concentration 10.0 uM; remark: listed apart in the source
[17] = target: Muscarinic acetylcholine receptor M3 (Homo sapiens) (UniProt P20309); details: Compound concentration 10.0 uM; remark: listed apart in the source
[18] = target: Gamma-aminobutyric acid type B receptor subunit 1 (Homo sapiens) (UniProt Q9UBS5); details: Rattus norvegicus; Compound concentration 10.0 uM
[19] = target: Sodium-dependent dopamine transporter (Homo sapiens, UniProt Q01959); details: Compound concentration 10.0 uM

Muscarinic acetylcholine receptor M3 (Homo sapiens), sequence (P20309 whole entry, looked up): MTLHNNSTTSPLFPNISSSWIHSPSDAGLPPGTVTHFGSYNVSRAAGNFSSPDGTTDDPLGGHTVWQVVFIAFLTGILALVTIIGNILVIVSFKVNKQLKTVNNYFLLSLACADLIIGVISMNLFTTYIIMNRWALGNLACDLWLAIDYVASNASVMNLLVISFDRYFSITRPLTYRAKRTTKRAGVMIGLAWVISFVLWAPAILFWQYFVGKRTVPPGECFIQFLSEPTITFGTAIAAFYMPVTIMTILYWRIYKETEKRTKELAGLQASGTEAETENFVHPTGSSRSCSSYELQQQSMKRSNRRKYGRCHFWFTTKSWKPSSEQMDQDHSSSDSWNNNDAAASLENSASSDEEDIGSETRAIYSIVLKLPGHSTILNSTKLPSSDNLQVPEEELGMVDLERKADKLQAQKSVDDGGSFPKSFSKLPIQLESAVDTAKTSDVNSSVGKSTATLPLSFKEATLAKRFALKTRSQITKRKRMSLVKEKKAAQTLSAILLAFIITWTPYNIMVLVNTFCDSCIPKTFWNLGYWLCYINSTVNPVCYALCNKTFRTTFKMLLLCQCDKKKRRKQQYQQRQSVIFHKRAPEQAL
Alpha-1D adrenergic receptor (Homo sapiens), sequence (P25100 whole entry): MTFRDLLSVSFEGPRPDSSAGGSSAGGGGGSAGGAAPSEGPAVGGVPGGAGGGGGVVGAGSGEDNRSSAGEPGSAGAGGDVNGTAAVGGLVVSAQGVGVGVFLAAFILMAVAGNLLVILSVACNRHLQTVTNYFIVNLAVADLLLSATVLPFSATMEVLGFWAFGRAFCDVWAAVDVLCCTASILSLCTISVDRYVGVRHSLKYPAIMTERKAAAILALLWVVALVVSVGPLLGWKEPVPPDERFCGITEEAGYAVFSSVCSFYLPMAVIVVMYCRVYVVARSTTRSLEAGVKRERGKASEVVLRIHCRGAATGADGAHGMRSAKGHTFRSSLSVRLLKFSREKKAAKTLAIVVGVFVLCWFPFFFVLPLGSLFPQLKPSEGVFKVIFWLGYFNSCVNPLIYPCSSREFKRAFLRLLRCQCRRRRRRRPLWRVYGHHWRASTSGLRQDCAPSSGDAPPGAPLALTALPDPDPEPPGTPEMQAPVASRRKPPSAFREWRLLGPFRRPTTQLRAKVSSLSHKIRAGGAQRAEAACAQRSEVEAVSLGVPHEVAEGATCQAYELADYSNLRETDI
5-hydroxytryptamine receptor 2A, sequence (P28223 whole entry): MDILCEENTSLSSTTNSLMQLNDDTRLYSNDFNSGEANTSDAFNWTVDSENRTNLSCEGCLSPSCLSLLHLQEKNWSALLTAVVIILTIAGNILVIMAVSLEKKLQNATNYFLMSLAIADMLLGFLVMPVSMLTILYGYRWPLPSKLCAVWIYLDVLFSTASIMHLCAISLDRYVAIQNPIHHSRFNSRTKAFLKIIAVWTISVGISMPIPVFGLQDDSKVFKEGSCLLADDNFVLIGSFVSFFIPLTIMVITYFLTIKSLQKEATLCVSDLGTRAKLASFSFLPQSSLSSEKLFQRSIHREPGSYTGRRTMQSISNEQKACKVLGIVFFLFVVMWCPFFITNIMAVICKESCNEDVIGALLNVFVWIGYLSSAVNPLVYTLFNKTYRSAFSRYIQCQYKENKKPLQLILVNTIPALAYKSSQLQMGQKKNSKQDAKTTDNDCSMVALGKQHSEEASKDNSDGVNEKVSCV
Sigma intracellular receptor 2 (Homo sapiens), sequence (Q5BJF2 whole entry): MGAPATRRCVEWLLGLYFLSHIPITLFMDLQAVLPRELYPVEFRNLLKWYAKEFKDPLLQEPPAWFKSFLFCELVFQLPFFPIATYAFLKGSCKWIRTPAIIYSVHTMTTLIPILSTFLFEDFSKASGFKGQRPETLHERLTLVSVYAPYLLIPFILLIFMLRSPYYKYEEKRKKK
Beta-3 adrenergic receptor (Homo sapiens), sequence (P13945 whole entry, looked up): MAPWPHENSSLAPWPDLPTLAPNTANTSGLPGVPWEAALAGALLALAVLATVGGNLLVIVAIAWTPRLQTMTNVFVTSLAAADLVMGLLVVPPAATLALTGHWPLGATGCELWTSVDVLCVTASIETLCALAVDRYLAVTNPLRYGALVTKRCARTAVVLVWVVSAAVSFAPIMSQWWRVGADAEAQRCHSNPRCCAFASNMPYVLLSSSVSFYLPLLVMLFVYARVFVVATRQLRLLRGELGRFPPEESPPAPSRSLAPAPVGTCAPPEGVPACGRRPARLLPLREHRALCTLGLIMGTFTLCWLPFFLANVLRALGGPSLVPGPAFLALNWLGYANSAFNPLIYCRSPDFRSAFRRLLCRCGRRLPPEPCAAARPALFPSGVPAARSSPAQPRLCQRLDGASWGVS
Transient receptor potential cation channel subfamily A member 1, sequence (Q6RI86 whole entry): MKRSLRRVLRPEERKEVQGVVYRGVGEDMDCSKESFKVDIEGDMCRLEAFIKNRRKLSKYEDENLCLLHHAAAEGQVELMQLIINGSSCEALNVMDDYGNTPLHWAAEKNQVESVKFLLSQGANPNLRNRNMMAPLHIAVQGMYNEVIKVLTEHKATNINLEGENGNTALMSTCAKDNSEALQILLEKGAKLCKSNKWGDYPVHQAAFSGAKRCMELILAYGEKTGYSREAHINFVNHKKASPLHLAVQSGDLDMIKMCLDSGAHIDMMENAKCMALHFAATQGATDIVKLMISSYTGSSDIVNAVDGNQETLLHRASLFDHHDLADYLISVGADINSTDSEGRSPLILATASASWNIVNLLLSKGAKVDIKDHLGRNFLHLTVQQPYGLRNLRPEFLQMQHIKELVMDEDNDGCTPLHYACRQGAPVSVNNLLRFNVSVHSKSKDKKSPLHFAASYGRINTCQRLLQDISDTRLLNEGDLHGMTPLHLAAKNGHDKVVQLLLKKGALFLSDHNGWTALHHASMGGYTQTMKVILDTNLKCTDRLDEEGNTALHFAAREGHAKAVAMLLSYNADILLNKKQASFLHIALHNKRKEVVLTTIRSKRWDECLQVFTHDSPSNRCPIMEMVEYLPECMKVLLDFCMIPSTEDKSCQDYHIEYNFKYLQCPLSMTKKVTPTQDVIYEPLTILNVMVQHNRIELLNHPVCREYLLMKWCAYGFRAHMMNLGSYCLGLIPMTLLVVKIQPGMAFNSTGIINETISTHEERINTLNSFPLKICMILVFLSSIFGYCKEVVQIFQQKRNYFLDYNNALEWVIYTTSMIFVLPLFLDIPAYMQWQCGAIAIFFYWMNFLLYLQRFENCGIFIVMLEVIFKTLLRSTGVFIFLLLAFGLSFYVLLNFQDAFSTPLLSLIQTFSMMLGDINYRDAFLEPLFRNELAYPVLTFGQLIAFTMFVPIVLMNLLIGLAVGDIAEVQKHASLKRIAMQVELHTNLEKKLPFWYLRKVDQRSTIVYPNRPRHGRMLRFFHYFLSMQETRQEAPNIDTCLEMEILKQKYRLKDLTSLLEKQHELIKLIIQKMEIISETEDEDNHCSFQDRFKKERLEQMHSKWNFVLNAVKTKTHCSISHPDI
Histamine H1 receptor (Homo sapiens), sequence (P35367 whole entry): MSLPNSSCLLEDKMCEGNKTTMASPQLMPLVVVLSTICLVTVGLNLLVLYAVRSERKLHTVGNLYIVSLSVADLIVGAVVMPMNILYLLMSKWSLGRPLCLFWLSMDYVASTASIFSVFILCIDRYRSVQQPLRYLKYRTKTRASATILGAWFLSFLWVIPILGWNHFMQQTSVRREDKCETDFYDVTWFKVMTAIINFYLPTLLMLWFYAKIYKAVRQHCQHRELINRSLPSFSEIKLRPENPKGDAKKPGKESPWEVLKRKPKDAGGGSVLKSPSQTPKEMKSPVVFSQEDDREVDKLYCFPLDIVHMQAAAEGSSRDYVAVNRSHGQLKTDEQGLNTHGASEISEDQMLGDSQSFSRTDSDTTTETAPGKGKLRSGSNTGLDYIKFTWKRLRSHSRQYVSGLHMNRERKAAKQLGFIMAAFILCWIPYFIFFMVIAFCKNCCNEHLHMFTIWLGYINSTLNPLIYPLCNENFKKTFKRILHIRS
5-hydroxytryptamine receptor 6 (Homo sapiens), sequence (P50406 whole entry): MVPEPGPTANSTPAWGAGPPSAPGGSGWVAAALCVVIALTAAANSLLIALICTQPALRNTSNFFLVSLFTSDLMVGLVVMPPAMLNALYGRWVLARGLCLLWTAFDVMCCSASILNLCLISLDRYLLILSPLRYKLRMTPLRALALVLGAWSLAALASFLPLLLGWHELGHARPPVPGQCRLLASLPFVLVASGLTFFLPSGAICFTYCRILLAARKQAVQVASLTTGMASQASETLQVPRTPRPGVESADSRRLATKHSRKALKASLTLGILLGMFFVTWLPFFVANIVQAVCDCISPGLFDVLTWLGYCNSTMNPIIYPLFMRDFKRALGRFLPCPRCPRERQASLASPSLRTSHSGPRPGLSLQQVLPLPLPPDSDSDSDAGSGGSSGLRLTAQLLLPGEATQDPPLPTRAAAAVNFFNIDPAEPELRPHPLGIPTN
Growth hormone secretagogue receptor type 1 (Homo sapiens), sequence (Q92847 whole entry): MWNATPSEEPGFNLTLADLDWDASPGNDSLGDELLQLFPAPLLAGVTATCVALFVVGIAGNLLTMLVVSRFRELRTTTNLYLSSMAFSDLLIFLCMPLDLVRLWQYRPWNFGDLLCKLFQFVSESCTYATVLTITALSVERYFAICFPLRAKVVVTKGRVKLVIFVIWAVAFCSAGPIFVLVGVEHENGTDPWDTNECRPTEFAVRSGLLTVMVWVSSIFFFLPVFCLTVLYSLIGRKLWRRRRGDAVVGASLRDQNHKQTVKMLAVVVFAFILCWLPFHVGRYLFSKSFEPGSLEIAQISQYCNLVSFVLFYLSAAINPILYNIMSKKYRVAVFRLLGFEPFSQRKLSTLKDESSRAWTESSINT

Structure (SMILES): COc1cc(N[C@@H]2CCCC[C@]2(O)C(F)(F)F)ccc1F [BAY-9897]
- inhibition [1]: -8.03%
- inhibition [2]: 6.99%
- inhibition [3]: 25.6%
- inhibition [4]: 27.8%
- IC50 [5]: > 25 µM (not active)
- inhibition [6]: -4.02%
- inhibition [7]: -0.76%
- inhibition [8]: 34.2%
- inhibition [9]: 3.81%
- inhibition [10]: 1%
- inhibition [11]: 5.42%
- inhibition [12]: -4.64%

Structure (SMILES): O[C@]1(C(F)(F)F)CCCC[C@H]1Nc1ccc(F)cc1 [BAY-390]
- inhibition [13]: 3%
- inhibition [14]: -6%
- inhibition [15]: -1%
- inhibition [16]: 3%
- inhibition [17]: 21%
- inhibition [18]: 3%
- inhibition [1]: 25.7%
- inhibition [2]: -1.95%
- inhibition [3]: 4.73%
- inhibition [4]: 8.95%
- IC50 [5]: 0.063 µM (active)
- inhibition [7]: 23.4%
- inhibition [8]: 31%
- inhibition [9]: -2.71%
- inhibition [10]: 69.4%
- inhibition [11]: 4.57%
- inhibition [12]: -2.73%
- inhibition [19]: 56.5%
